Patent US20150250864A1, “ANTI-CANCER VACCINES” (Board of Regents, The University of Texas System, priority 2012, published 2015)

Test system: T cells in PBMCs
Assay: IFN-γ release by ELISA from PBMC stimulated with peptides or protein
Assay type: cell-based, human
Details: stimulated PBMC, FIG. 21A
Excerpt: FIG. 17. T cell stimulation by HERV-K peptides. Peptides (p73-76 and p18-135) or HERV-K SU fusion proteins were used to stimulate PBMC and evaluated in vitro for their ability to stimulate T cells in PBMCs from healthy subjects (ND1007083; left) and/or cancer patients (BC 243; right), based on interferon-γ(IFN-γ) release by ELISA. KLH peptide and GST protein were used as controls. Other negative controls included media only, DMSO, and PBS.
FIG. 18. T cell stimulation by HERV-K peptides. Peptides (p73-76: left; and p18-135: middle) or HERV-K SU fusion proteins (right) were used to stimulate PBMC and evaluated in vitro for their ability to stimulate T cells in PBMCs from healthy subjects and/or cancer patients (BC 243; middle), based on interferon-γ (IFN-γ) release by ELISA. OD values of interferon-γ (IFN-γ) release were compared between normal donors (ND447549, ND1001366, and ND1007083) and cancer patients (OC222, OC 210, OC212, and BC243). OC is ovarian cancer and BC is breast cancer
FIGS. 21A-C. T Cell Stimulation. 9 mer Peptides (HERVK-3, HERVK-4, HERVK-11, and HERVK-18; see Table 1), p73-76 and p18-135 (Table 1 178 and 179), or HERV-K SU fusion proteins were used to stimulate PBMC and evaluated in vitro for their ability to stimulate T cells in PBMCs from healthy subjects and/or cancer patients, based on IFN-γ and Granzyme B release by ELISA. (FIG. 21A) OD values of IFN-γ release were compared in a normal donor (ND291812). (FIG. 21B) OD values of IFN-γ release were compared between a normal donor (ND291817) and an ovarian cancer patient (OC153). (FIG. 21C) OD values of Granzyme B release were compared between a normal donor (ND291817) and an ovarian cancer patient (OC153). Each dot represents an individual clone. Negative controls measured release of effector molecules from cancer cells after treatment with supernatants obtained from PBMCs without stimulation with HERV-K peptides or protein; positive controls were stimulated with PMA/ONO.
Cancer patients were enrolled to evaluate HERV-K as a tumor associated antigen target. Patients provided written informed consent as part of an approved protocol (LAB04-0083) at MD Anderson Cancer Center prior to commencing the studies. Normal healthy donor control blood samples were obtained from Gulf Coast Regional Blood Center, Houston Tex. 40 mL of peripheral blood was obtained from each patient, and peripheral blood mononuclear cells (PBMCs) were isolated by density gradient centrifugation using Histopaque-1077 (Sigma-Aldrich; USA). HLA-A*02 expression in PBMCs obtained from cancer patients and healthy subjects was determined by flow cytometry with PE Mouse anti-human HLA-A2 mAb BB7.2 (BD Pharmingen; San Diego, Calif., USA). Mouse IgG2b was used as an isotype control. PBMCs (5×10^5 cells/well) from either healthy subjects or cancer patients were incubated with Peptide #18-135 ([…]; SEQ ID NO: 178), Peptide #73-76 ([…]; SEQ ID NO: 179) or KLH as control peptide) or proteins (HERV-K env SU protein or GST protein as control) at concentrations of 40 μg/mL in 96-well U-bottom microplates (BD; Franklin Lakes, N.J., USA) in 100 μL of T-cell medium (TCM), consisting of RPMI 1640 (Mediatech; Manassas, Va., USA), 10% human AB serum (Valley Biomedical, Winchester, USA), […] 2-mercaptoethanol, 100 IU/mL interleukin-2 (IL-2), and 0.1 mM MEM nonessential amino acid solution (Invitrogen; Grand Island, N.Y., USA). Half of the TCM was removed and replaced with fresh TCM containing peptides (20 μg/mL) on day 7. After 14 days of culture, the supernatants from cell culture media (PBMC pulsed with peptides or proteins) were harvested and tested for their ability to produce IFN-gamma or IL-2, and granzyme B release was also determined by enzyme-linked immunosorbent assay (ELISA) assay. In order to detect the secreted cytokine in this assay, high-binding plates were coated with 5 μg/ml anti-IFN-γ (Mabtech, Stockholm, Sweden) diluted in PBS buffer at 4° C. overnight. […]

| Sequence | IFN-γ release (OD values) |
| --- | --- |
| IINLILILV [HERVK-18] | Higher IFN-γ release |
| YMLVVGNIV [HERVK-3] | Higher IFN-γ release |
